Results from patent US20260098034A1, “2H-BENZOTRIAZOLE DERIVATIVE, PREPARATION METHOD THEREFOR, AND PHARMACEUTICAL COMPOSITION CONTAINING SAME” (ORXES THERAPEUTICS CO., LTD., priority 2022, published 2026).
“And” between values parts separate entries of the source, which are not always exact repeats. Equal entries are not always repeated. Structures can show the parent of a compound that is named as a salt. Where two headings read alike, the source gives them in different places.

Legend:
[1] = 1 to 2 hours before sexual intercourse, cited from earlier work
Wistar rats = assay: PCA-induced Wistar rat premature ejaculation model; assay type: in vivo; details: for Actual number of ejaculations / Number of the seminal vesicle contractions / Seminal vesicle basal pressure / Seminal vesicle peak pressure / The first contraction latency period / The first ejaculation latency period: within 30 min after PCA induction, individual rats
Protocol: Male Wistar rats with a weight of about 300 g were adapted for one week before the experiment was started. On the day of the experiment, the animals were anesthetized with a combination of 20 mg/kg of Zoletil 50 via i.p. and 8 mg/kg of xylazine via i.p., and the body temperature was maintained at 37° C. with a thermal insulation blanket. Exposed common carotid artery was intubated with PE50 to monitor real-time arterial pressure (i.e. systolic pressure, diastolic pressure, and mean arterial pressure). The seminal vesicles and cavernosal muscles of the animals were exposed. The stable baselines of the pressure of the seminal vesicle and the cavernosal myoelectricity were recorded for 10 min. Then the drug was administered through the tail vein for the dapoxetine group, and the tested compound was orally administered for the tested compound group (for the PE model group, the drug was replaced with a solvent). After 1 min, for inducing PE modeling, 5 mg/kg of PCA was injected intraperitoneally, and then the seminal vesicle pressure curve and the change of bulbospongiosus EMG were continuously recorded for 30 min.
• A. Within 30 min, the actual number of ejaculations of the animals and the latency period of the first ejaculation; • B. Within 30 min, the number of the seminal vesicle contractions, the latency period of the first contraction, the basal pressure and the peak pressure.
The experimental data were expressed by means±S.E.M., and statistical analysis was performed by GraphPad Prism 7.0 software. Single factor variance analysis (One-way ANOVA) was used for comparison between multiple groups, and Dunnett't-test was used for statistical analysis in Post hoc test. Student's t-test was used for comparison between two groups. P<0.05 was considered as a significant difference.

[2] = Dapoxetine 2 mg/kg i.v. + PCA 5 mg/kg i.p., hydrochloride
[3] = dapoxetine, medium or high dose of A001 to A006
[4] = 0.125 mg/kg p.o. + PCA 5 mg/kg i.p.
[5] = 0.5 mg/kg p.o. + PCA 5 mg/kg i.p.
[6] = 2 mg/kg p.o. + PCA 5 mg/kg i.p.

CN(C)[C@@H](CCOc1cccc2ccccc12)c1ccccc1 [Dapoxetine, Dapoxetine hydrochloride, reference compound]
increase of IELT ([1]; 30 mg): 2.5 times | increase of IELT ([1]; 60 mg): 3.0 times | Actual number of ejaculations (Wistar rats; [2]): 1 (2×) and 0 (2×) and 2 | Number of the seminal vesicle contractions (Wistar rats; [2]): 1 (3×) and 0 and 3 | Seminal vesicle basal pressure (Wistar rats; [2]): 5.16 mmHg and 4.97 mmHg and 5.37 mmHg and 5.88 mmHg and 4.96 mmHg | Seminal vesicle peak pressure (Wistar rats; [2]): 6.89 mmHg and 8.1 mmHg and 6.46 mmHg and 6.78 mmHg and 7.03 mmHg | The first contraction latency period (Wistar rats; [2]): 1448 s and 1705 s and 1800 s and 1749 s and 866 s | The first ejaculation latency period (Wistar rats; [2]): 1558 s and 1800 s (2×) and 1256 s and 967 s | latency period of initial seminal vesicle contraction compared with the PE model group (Wistar rats; dapoxetine group (2 mg/kg i.v.), FIG. 4): significant increase | ejaculation latency period (conclusion) (Wistar rats; [3]): effectively prolong | number of ejaculations (conclusion) (Wistar rats; [3]): greatly reduce

c1ccc2nn(CCCN3CCN(c4nsc5ccccc45)CC3)nc2c1 [Compound A004]
Actual number of ejaculations (Wistar rats; [4]): 0 (2×) and 3 and 6 and 4 | Number of the seminal vesicle contractions (Wistar rats; [4]): 3 and 4 and 8 and 6 and 2 | Seminal vesicle basal pressure (Wistar rats; [4]): 4.09 mmHg and 5.98 mmHg and 5.59 mmHg and 5.17 mmHg and 4.18 mmHg | Seminal vesicle peak pressure (Wistar rats; [4]): 4.21 mmHg and 13.38 mmHg and 16.13 mmHg and 15.05 mmHg and 4.25 mmHg | The first contraction latency period (Wistar rats; [4]): 1400 s and 797 s and 757 s and 735 s and 1525 s | The first ejaculation latency period (Wistar rats; [4]): 1800 s (2×) and 865 s and 678 s and 806 s | Actual number of ejaculations (Wistar rats; [5]): 5 and 6 and 2 and 0 (2×) | Number of the seminal vesicle contractions (Wistar rats; [5]): 7 and 8 and 3 and 0 (2×) | Seminal vesicle basal pressure (Wistar rats; [5]): 5.89 mmHg and 6.07 mmHg and 5.18 mmHg and 3.99 mmHg and 4.32 mmHg | Seminal vesicle peak pressure (Wistar rats; [5]): 17.95 mmHg and 29.19 mmHg and 13.88 mmHg and 4.79 mmHg and 4.77 mmHg | The first contraction latency period (Wistar rats; [5]): 798 s and 819 s and 1009 s and 1800 s (2×) | The first ejaculation latency period (Wistar rats; [5]): 845 s and 903 s and 1175 s and 1800 s (2×) | Actual number of ejaculations (Wistar rats; [6]): 0 | Number of the seminal vesicle contractions (Wistar rats; [6]): 0 | Seminal vesicle basal pressure (Wistar rats; [6]): 4.68 mmHg and 4.67 mmHg and 4.65 mmHg and 4.66 mmHg and 3.97 mmHg | Seminal vesicle peak pressure (Wistar rats; [6]): 5.18 mmHg and 5.26 mmHg and 4.96 mmHg and 4.79 mmHg and 4.87 mmHg | The first contraction latency period (Wistar rats; [6]): 1800 s | The first ejaculation latency period (Wistar rats; [6]): 1800 s
